Assay results from ChEMBL document CHEMBL1697692, “Developing structure-activity relationships for the prediction of hepatotoxicity” (Chem Res Toxicol, 2010).

Each compound was assayed on Hepatotoxicity (assay: Literature-mined public compounds from Greene et al multi-species hepatotoxicity modelling dataset).
`CC[N+](CC)(CC)CCOc1cccc(OCC[N+](CC)(CC)CC)c1OCC[N+](CC)(CC)CC.[I-].[I-].[I-]` [GALLAMINE TRIETHIODIDE] was tested, and the Hepatotoxicity was “NE: No evidence of hepatotoxicity in any species”.
With `COc1c(N2CCNC(C)C2)c(F)cc2c(=O)c(C(=O)O)cn(C3CC3)c12` (configuration not stated) [GATIFLOXACIN] the Hepatotoxicity was “WE: Weak evidence (<10 case reports) of human hepatotoxicity”.
In the case of `Cc1ccc(C)c(OCCCC(C)(C)C(=O)O)c1` [GEMFIBROZIL], the Hepatotoxicity is reported as “HH: Evidence of human hepatotoxicity”.
In the case of `O=C(OCC(O)CO)c1ccccc1Nc1ccnc2cc(Cl)ccc12` (configuration not stated) [GLAFENINE], the Hepatotoxicity is reported as “HH: Evidence of human hepatotoxicity”.
With `Cc1ccc(S(=O)(=O)NC(=O)NN2CC3CCCC3C2)cc1` (configuration not stated) [GLICLAZIDE] the Hepatotoxicity was “WE: Weak evidence (<10 case reports) of human hepatotoxicity”.
`CCC1=C(C)CN(C(=O)NCCc2ccc(S(=O)(=O)NC(=O)N[C@H]3CC[C@H](C)CC3)cc2)C1=O` [GLIMEPIRIDE] was tested, and the Hepatotoxicity was “WE: Weak evidence (<10 case reports) of human hepatotoxicity”.
`N[C@H]1C(O)O[C@H](CO)[C@@H](O)[C@@H]1O` (some centres not stated) [GLUCOSAMINE] was tested, and the Hepatotoxicity was “AH: Evidence for animal hepatotoxicity but not tested in humans”.
For `CCC1(c2ccccc2)CCC(=O)NC1=O` (configuration not stated) [GLUTETHIMIDE], the Hepatotoxicity was “HH: Evidence of human hepatotoxicity”.
In the case of `Cc1c(F)c(N2CCNC(C)C2)cc2c1c(=O)c(C(=O)O)cn2C1CC1` (configuration not stated) [GREPAFLOXACIN], the Hepatotoxicity is reported as “HH: Evidence of human hepatotoxicity”.
For `COC1=CC(=O)C[C@@H](C)[C@]12Oc1c(Cl)c(OC)cc(OC)c1C2=O` [GRISEOFULVIN], the Hepatotoxicity was “HH: Evidence of human hepatotoxicity”.
For `N=C(N)NCCN1CCCCCCC1.N=C(N)NCCN1CCCCCCC1.O=S(=O)(O)O` [GUANETHIDINE SULFATE], the Hepatotoxicity was “HH: Evidence of human hepatotoxicity”.
For `ClC(Cl)=C(Cl)C(Cl)=C(Cl)Cl` [HEXACHLOROBUTADIENE], the Hepatotoxicity was “AH: Evidence for animal hepatotoxicity but not tested in humans”.
For `Oc1c(Cl)cc(Cl)c(Cl)c1Cc1c(O)c(Cl)cc(Cl)c1Cl` [HEXACHLOROPHENE], the Hepatotoxicity was “HH: Evidence of human hepatotoxicity”.
With `CCN(CC)CCNc1ccc(CO)c2sc3ccccc3c(=O)c12` [HYCANTHONE] the Hepatotoxicity was “HH: Evidence of human hepatotoxicity”.
`NN` [HYDRAZINE] was tested, and the Hepatotoxicity was “AH: Evidence for animal hepatotoxicity but not tested in humans”.
In the case of `NS(=O)(=O)c1cc2c(cc1Cl)NCNS2(=O)=O` [HYDROCHLOROTHIAZIDE], the Hepatotoxicity is reported as “HH: Evidence of human hepatotoxicity”.
For `NC(=O)NO` [HYDROXYUREA], the Hepatotoxicity was “HH: Evidence of human hepatotoxicity”.
In the case of `CC(C)Cc1ccc(CC(=O)O)cc1` [IBUFENAC], the Hepatotoxicity is reported as “HH: Evidence of human hepatotoxicity”.
In the case of `CC(C)Cc1ccc(C(C)C(=O)O)cc1` (configuration not stated) [IBUPROFEN], the Hepatotoxicity is reported as “WE: Weak evidence (<10 case reports) of human hepatotoxicity”.
In the case of `CC(=O)[C@]1(O)Cc2c(O)c3c(c(O)c2[C@@H](O[C@H]2C[C@H](N)[C@H](O)[C@H](C)O2)C1)C(=O)c1ccccc1C3=O.Cl` [IDARUBICIN HYDROCHLORIDE], the Hepatotoxicity is reported as “NE: No evidence of hepatotoxicity in any species”.
In the case of `O=c1[nH]c(=O)n([C@H]2C[C@H](O)[C@@H](CO)O2)cc1I` [IDOXURIDINE], the Hepatotoxicity is reported as “HH: Evidence of human hepatotoxicity”.
For `O=P1(NCCCl)OCCCN1CCCl` (configuration not stated) [IFOSFAMIDE], the Hepatotoxicity was “HH: Evidence of human hepatotoxicity”.
`CN(C)CCCN1c2ccccc2CCc2ccccc21.Cl` [IMIPRAMINE HYDROCHLORIDE] was tested, and the Hepatotoxicity was “HH: Evidence of human hepatotoxicity”.
In the case of `Nc1cc(-c2ccncc2)c[nH]c1=O` [INAMRINONE], the Hepatotoxicity is reported as “HH: Evidence of human hepatotoxicity”.
With `CC1(c2ccccc2)Cc2cc(OCC(=O)O)c(Cl)c(Cl)c2C1=O` (configuration not stated) [INDACRINONE] the Hepatotoxicity was “HH: Evidence of human hepatotoxicity”.
`COc1ccc2c(c1)c(CC(=O)O)c(C)n2C(=O)c1ccc(Cl)cc1` [INDOMETHACIN] was tested, and the Hepatotoxicity was “HH: Evidence of human hepatotoxicity”.
For `O[C@H]1[C@H](O)[C@@H](O)[C@H](O)[C@@H](O)[C@H]1O` [INOSITOL], the Hepatotoxicity was “NE: No evidence of hepatotoxicity in any species”.
In the case of `C[C@H](O)C(=O)Nc1c(I)c(C(=O)NC(CO)CO)c(I)c(C(=O)NC(CO)CO)c1I` [IOPAMIDOL], the Hepatotoxicity is reported as “HH: Evidence of human hepatotoxicity”.
In the case of `CC(C)NNC(=O)c1ccncc1` [IPRONIAZID], the Hepatotoxicity is reported as “HH: Evidence of human hepatotoxicity”.
For `CCCCC1=NC2(CCCC2)C(=O)N1Cc1ccc(-c2ccccc2-c2nnn[nH]2)cc1` [IRBESARTAN], the Hepatotoxicity was “WE: Weak evidence (<10 case reports) of human hepatotoxicity”.
For `Cc1cc(C(=O)NNCc2ccccc2)no1` [ISOCARBOXAZID], the Hepatotoxicity was “WE: Weak evidence (<10 case reports) of human hepatotoxicity”.
For `NNC(=O)c1ccncc1` [ISONIAZID], the Hepatotoxicity was “HH: Evidence of human hepatotoxicity”.
For `O=C(O)c1ccncc1` [ISONICOTINIC ACID], the Hepatotoxicity was “NE: No evidence of hepatotoxicity in any species”.
`CC(C)NCC(O)c1ccc(O)c(O)c1.Cl` (configuration not stated) [ISOPROTERENOL HYDROCHLORIDE] was tested, and the Hepatotoxicity was “NE: No evidence of hepatotoxicity in any species”.
`O=[N+]([O-])O[C@H]1CO[C@H]2[C@@H]1OC[C@H]2O[N+](=O)[O-]` [ISOSORBIDE DINITRATE] was tested, and the Hepatotoxicity was “NE: No evidence of hepatotoxicity in any species”.
`CC1=C(/C=C/C(C)=C/C=C/C(C)=C\C(=O)O)C(C)(C)CCC1` [ISOTRETINOIN] was tested, and the Hepatotoxicity was “HH: Evidence of human hepatotoxicity”.
For `Cc1cc(NC(=O)C2=C(O)c3ccccc3S(=O)(=O)N2C)no1` [ISOXICAM], the Hepatotoxicity was “NE: No evidence of hepatotoxicity in any species”.
With `CC(COc1ccccc1)NC(C)C(O)c1ccc(O)cc1.Cl` (configuration not stated) [ISOXSUPRINE HYDROCHLORIDE] the Hepatotoxicity was “NE: No evidence of hepatotoxicity in any species”.
`CC(=O)N1CCN(c2ccc(OCC3COC(Cn4ccnc4)(c4ccc(Cl)cc4Cl)O3)cc2)CC1` (configuration not stated) [KETOCONAZOLE] was tested, and the Hepatotoxicity was “HH: Evidence of human hepatotoxicity”.
`CC(C(=O)O)c1cccc(C(=O)c2ccccc2)c1` (configuration not stated) [KETOPROFEN] was tested, and the Hepatotoxicity was “NE: No evidence of hepatotoxicity in any species”.
For `NC(CO)(CO)CO.O=C(c1ccccc1)c1ccc2n1CCC2C(=O)O` (configuration not stated) [KETOROLAC TROMETHAMINE], the Hepatotoxicity was “HH: Evidence of human hepatotoxicity”.
For `CN1CCC(=C2c3ccccc3CC(=O)c3sccc32)CC1` [KETOTIFEN], the Hepatotoxicity was “NE: No evidence of hepatotoxicity in any species”.
In the case of `CC(CCc1ccccc1)NCC(O)c1ccc(O)c(C(N)=O)c1` (configuration not stated) [LABETALOL], the Hepatotoxicity is reported as “HH: Evidence of human hepatotoxicity”.
With `Nc1ccn([C@@H]2CS[C@H](CO)O2)c(=O)n1` [LAMIVUDINE] the Hepatotoxicity was “WE: Weak evidence (<10 case reports) of human hepatotoxicity”.
`Cc1oncc1C(=O)Nc1ccc(C(F)(F)F)cc1` [LEFLUNOMIDE] was tested, and the Hepatotoxicity was “HH: Evidence of human hepatotoxicity”.
With `Nc1nc(=O)c2c([nH]1)NCC(CNc1ccc(C(=O)N[C@@H](CCC(=O)[O-])C(=O)[O-])cc1)N2C=O.[Ca+2]` (some centres not stated) [LEUCOVORIN CALCIUM] the Hepatotoxicity was “NE: No evidence of hepatotoxicity in any species”.
For `N[C@@H](Cc1ccc(O)c(O)c1)C(=O)O` [LEVODOPA], the Hepatotoxicity was “NE: No evidence of hepatotoxicity in any species”.
For `C[C@H]1COc2c(N3CCN(C)CC3)c(F)cc3c(=O)c(C(=O)O)cn1c23.C[C@H]1COc2c(N3CCN(C)CC3)c(F)cc3c(=O)c(C(=O)O)cn1c23.O` [LEVOFLOXACIN], the Hepatotoxicity was “WE: Weak evidence (<10 case reports) of human hepatotoxicity”.
`CCN(CC)CC(=O)Nc1c(C)cccc1C` [LIDOCAINE] was tested, and the Hepatotoxicity was “NE: No evidence of hepatotoxicity in any species”.
For `N[C@@H](Cc1cc(I)c(Oc2ccc(O)c(I)c2)c(I)c1)C(=O)O` [LIOTHYRONINE], the Hepatotoxicity was “NE: No evidence of hepatotoxicity in any species”.
With `NCCCC[C@H](N[C@@H](CCc1ccccc1)C(=O)O)C(=O)N1CCC[C@H]1C(=O)O` [LISINOPRIL ANHYDROUS] the Hepatotoxicity was “HH: Evidence of human hepatotoxicity”.
With `C[C@H](CCC(=O)O)[C@H]1CC[C@H]2[C@@H]3CC[C@@H]4C[C@H](O)CC[C@]4(C)[C@H]3CC[C@]12C` [LITHOCHOLIC ACID] the Hepatotoxicity was “AH: Evidence for animal hepatotoxicity but not tested in humans”.
`CN(C)C(=O)C(CCN1CCC(O)(c2ccc(Cl)cc2)CC1)(c1ccccc1)c1ccccc1.Cl` [LOPERAMIDE HYDROCHLORIDE] was tested, and the Hepatotoxicity was “NE: No evidence of hepatotoxicity in any species”.
For `N[C@@H](C(=O)N[C@@H]1C(=O)N2C(C(=O)O)=C(Cl)CC[C@H]12)c1ccccc1` [LORACARBEF ANHYDROUS], the Hepatotoxicity was “NE: No evidence of hepatotoxicity in any species”.
For `CCCCc1nc(Cl)c(CO)n1Cc1ccc(-c2ccccc2-c2nn[nH]n2)cc1` [LOSARTAN], the Hepatotoxicity was “HH: Evidence of human hepatotoxicity”.
`O=C(O)/C=C\C(=O)O` [MALEIC ACID] was tested, and the Hepatotoxicity was “AH: Evidence for animal hepatotoxicity but not tested in humans”.
In the case of `CNCCCC12CCC(c3ccccc31)c1ccccc12` [MAPROTILINE], the Hepatotoxicity is reported as “WE: Weak evidence (<10 case reports) of human hepatotoxicity”.
With `COC(=O)Nc1nc2ccc(C(=O)c3ccccc3)cc2[nH]1` [MEBENDAZOLE] the Hepatotoxicity was “HH: Evidence of human hepatotoxicity”.
With `Cc1ccc(Cl)c(Nc2ccccc2C(=O)[O-])c1Cl.O.[Na+]` [MECLOFENAMATE SODIUM] the Hepatotoxicity was “HH: Evidence of human hepatotoxicity”.
With `CC(=O)O[C@]1(C(C)=O)CC[C@H]2[C@@H]3C[C@H](C)C4=CC(=O)CC[C@]4(C)[C@H]3CC[C@@]21C` [MEDROXYPROGESTERONE ACETATE] the Hepatotoxicity was “WE: Weak evidence (<10 case reports) of human hepatotoxicity”.
`Cc1cccc(Nc2ccccc2C(=O)O)c1C` [MEFENAMIC ACID] was tested, and the Hepatotoxicity was “HH: Evidence of human hepatotoxicity”.
In the case of `COc1ccc2[nH]cc(CCNC(C)=O)c2c1` [MELATONIN], the Hepatotoxicity is reported as “NE: No evidence of hepatotoxicity in any species”.
`CC12CC3CC(C)(C1)CC(N)(C3)C2` [MEMANTINE] was tested, and the Hepatotoxicity was “NE: No evidence of hepatotoxicity in any species”.
In the case of `CC1=CC(=O)c2ccccc2C1=O` [MENADIONE], the Hepatotoxicity is reported as “AH: Evidence for animal hepatotoxicity but not tested in humans”.
For `CCC1(c2ccccc2)C(=O)NC(=O)N(C)C1=O` (configuration not stated) [MEPHOBARBITAL], the Hepatotoxicity was “HH: Evidence of human hepatotoxicity”.
For `CCCC(C)(COC(N)=O)COC(N)=O` [MEPROBAMATE], the Hepatotoxicity was “HH: Evidence of human hepatotoxicity”.
With `Sc1ncnc2nc[nH]c12` [MERCAPTOPURINE ANHYDROUS] the Hepatotoxicity was “HH: Evidence of human hepatotoxicity”.
